Values after ≈ are worked out from the molar mass of the structure shown. Like-named read-outs stand apart in the source and are kept apart here.
Tests used:
human GPR40 receptor = human GPR40 receptor (Homo sapiens (Human), UniProt O14842); assay: IP1 accumulation measurements using the IPOne assay system; type: cell-based
Method: IP1 accumulation measurements using the IPOne assay system—1321N1 cells stably expressing human GPR40 receptor (Euroscreen, Belgium) are seeded 24 h before the assay in white 384-well plates in culture medium containing 10% FCS, 1% Na-Pyruvate and 400 μg/mL G418. IP1 is assayed according to the manufacturer's description (Cisbio Bioassays, France). In brief, the assay is started by substitution of the culture medium by stimulation buffer (Hepes 10 mM, CaCl2 1 mM, MgCl2 0.5 mM, KCl 4.2 mM, NaCl 146 mM, glucose 5.5 mM and LiCl 50 mM, pH 7.4). Cells are stimulated for 1 h at 37° C., 5% CO2 by addition of the compounds that are diluted in stimulation buffer containing LiCl. Assays are stopped by adding HTRF-conjugates (IP1-d2 and Anti-IP1 cryptate Tb) and lysis buffer, provided by the manufacturer. After an incubation time of 1 h at room temperature plates are measured using an EnVision™, Perkin Elmer. The obtained fluorescence ratios at 665/615 […] are then used to calculate the pEC50 values using Assay Explorer 3.3 Software (Accelrys, Inc.) by interpolation using an IP1 reference curve and subsequent sigmoidal curve fitting allowing for a variable hill slope.

[1] = target: cytochrome P450 2C8-isoenzyme (Homo sapiens (Human), UniProt P10632); assay: Inhibition of CYP-2C8 (amodiaquine deethylation, human liver microsomes); type: in vitro ADME; conditions: amodiaquine 1 μM, 37° C.
Chain of cytochrome P450 2C8-isoenzyme (P10632 whole entry): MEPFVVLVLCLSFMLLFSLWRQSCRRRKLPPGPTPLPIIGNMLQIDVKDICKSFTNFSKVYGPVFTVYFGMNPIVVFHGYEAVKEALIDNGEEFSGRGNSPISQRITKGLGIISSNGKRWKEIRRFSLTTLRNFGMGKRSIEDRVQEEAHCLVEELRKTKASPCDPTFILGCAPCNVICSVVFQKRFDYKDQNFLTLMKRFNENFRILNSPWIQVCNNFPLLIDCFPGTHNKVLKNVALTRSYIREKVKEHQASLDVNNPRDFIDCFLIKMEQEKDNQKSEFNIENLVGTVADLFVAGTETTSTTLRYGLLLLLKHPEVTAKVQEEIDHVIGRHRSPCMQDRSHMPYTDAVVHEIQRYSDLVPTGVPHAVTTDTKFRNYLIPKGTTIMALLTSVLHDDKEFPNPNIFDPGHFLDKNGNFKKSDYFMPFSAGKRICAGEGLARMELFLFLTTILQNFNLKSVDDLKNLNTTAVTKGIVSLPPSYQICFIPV
Method: (§1) All assays are carried out on a robotic system in 96 well plates. The final incubation volume contains TRIS buffer (0.1 M), MgCl2 (5 mM), human liver microsomes (0.05 mg/mL), amodiaquine (1 μM) and the test compound at five different concentrations or no compound (high control) in duplicate (e.g. highest concentration 10-50 μM with subsequent serial 1:4 dilutions). Following a short preincubation period, reactions are started with the cofactor (NADPH, 1 mM) and stopped by cooling the incubation down to 8° C. and subsequently by addition of one volume of acetonitrile. An internal standard solution—the stable isotope d5-desethylamodiaquine—is added after quenching of incubations. Peak area analyte (=metabolite formed) and internal standard is determined by LC-MS/MS. The resulting peak area ratio analyte to internal standard in these incubations is compared to a control activity containing no test compound. Within each of the assay runs, the IC50 of a positive control inhibitor (Montelukast) is determined.

[2] = Chemical stability (degradation kinetics) in acidic aqueous media; type: physicochemical; conditions: pH value ca. 1.2 (acetonitrile/0.1 M aqueous HCl 2:3), 37° C.
Method: Degradation kinetics is used to simulate chemical stability of compounds in the acidic part of the gastro intestinal tract. […] Their application as medical drugs to treat human diseases is therefore less restricted and troublesome.
The chemical stability of the compounds of the invention at pH value of ca. 1.2 is determined as follows:
Compound is dissolved in an HPLC vial either in a mixture of acetonitrile/0.1 M aqueous HCl (2:3; pH ca. 1.2) or in a mixture of acetonitrile/McIlvaine buffer pH 7.4 (2:3) to get a concentration of approximately 0.25 mg/ml. The vial was then transferred into an HPLC autosampler system and maintained at a temperature of 37° C. A first sample is taken and injected immediately into a standard HPLC system with a UV DAD detector. Further samples are injected after 2, 4, 6, 8 and 10 hours. Amount of degraded compound is measured by determining the recovery rate of compound [%] for each injection using an HPLC standard gradient method. Therefore the peak area of the main peak for the first injection (AUt0) is determined and set as 100%. Peak area of the main peak is determined also for the further injections (AUtn, n=2, 4, 6, 8, 10) and expressed as fraction of (AUt0)/(AUtn, n=2, 4, 6, 8, 10) [%].

Aqueous solubility = type: physicochemical; conditions: buffer pH 2.2, 24 h shaking, 2.5% DMSO; for solubility at 24 h: aqueous buffer, kinetic from dmso stock
Method: Starting from a 10 mM DMSO stock solution aliquots are diluted with acetonitrile/water (1/1) or buffer, respectively. After 24 h of shaking, the solutions are filtrated and analyzed by LC-UV. The amount dissolved in buffer is compared to the amount in the acetonitrile solution.

[3] = target: cytochrome P450 2C9-isoenzyme (Homo sapiens (Human), UniProt P11712); assay: Inhibition of CYP-2C9 (diclofenac hydroxylation, human liver microsomes); type: in vitro ADME; conditions: diclofenac 10 μM, 37° C.
Chain of cytochrome P450 2C9-isoenzyme (P11712 whole entry): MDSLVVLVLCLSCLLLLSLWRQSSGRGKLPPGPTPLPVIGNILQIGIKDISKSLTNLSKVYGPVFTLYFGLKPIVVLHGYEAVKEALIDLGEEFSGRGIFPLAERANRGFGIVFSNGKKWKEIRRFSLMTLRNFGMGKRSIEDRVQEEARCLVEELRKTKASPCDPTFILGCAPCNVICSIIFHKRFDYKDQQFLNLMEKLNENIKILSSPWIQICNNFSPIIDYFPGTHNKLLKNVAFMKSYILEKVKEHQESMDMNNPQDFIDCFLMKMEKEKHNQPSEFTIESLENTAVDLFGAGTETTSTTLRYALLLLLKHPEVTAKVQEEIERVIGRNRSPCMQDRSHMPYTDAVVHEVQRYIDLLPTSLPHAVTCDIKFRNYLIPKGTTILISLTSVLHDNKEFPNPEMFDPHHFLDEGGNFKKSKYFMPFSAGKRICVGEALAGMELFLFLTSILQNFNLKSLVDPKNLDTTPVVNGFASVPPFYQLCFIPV
Method: as §1, with “(0.1” for “(0.05”, “diclofenac (10” for “amodiaquine (1”, “(e.g.,” for “(e.g.”, “^13C6-hydroxydiclofenac—is” for “d5-desethylamodiaquine—is”, “(sulfaphenazole)” for “(Montelukast)”

[4] = head-to-head compilation, given as IC50, values equal the EC50 of Table 2, read-out: GPR40: IC50
[5] = 1321N1 cells stably expressing human GPR40, 1 h stimulation, read-out: EC50

Chain of human GPR40 receptor (O14842 whole entry): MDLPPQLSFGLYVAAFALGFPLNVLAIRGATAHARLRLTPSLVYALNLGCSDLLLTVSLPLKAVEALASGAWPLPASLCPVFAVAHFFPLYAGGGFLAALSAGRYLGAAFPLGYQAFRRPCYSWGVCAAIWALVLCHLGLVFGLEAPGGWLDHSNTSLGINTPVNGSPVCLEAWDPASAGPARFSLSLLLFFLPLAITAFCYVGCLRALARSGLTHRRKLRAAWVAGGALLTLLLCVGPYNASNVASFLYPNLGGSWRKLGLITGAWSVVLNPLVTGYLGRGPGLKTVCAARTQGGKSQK

Compound | EC50 (human GPR40 receptor; [4]) | IC50 [1] | Amount of degradation after 2 h [2] | solubility at 24 h (Aqueous solubility) | Solubility at pH value 2.2 (Aqueous solubility) | IC50 [3] | EC50 (human GPR40 receptor; [5])
Cc1cc(OCCC(C)(C)O)cc(C)c1-c1ccc(F)c2c1CC[C@H]2Oc1ccc([C@H]2C[C@@H]2C(=O)O)cc1 [Example 17 in WO 2013/178575, reference compound] | 0.004 µM | 6 µM | 8% | < 0.001 mg/mL | < 1 μg/mL | 14 µM | 
Cc1cc(-c2nnn(C)n2)cc(C)c1-c1ccc(F)c2c1CC[C@H]2Oc1ccc([C@H]2C[C@@H]2C(=O)O)cc1 [Example 54 in WO 2013/178575] |  |  | 2.5%^ |  |  |  | 
Cc1cc(O[C@@H]2COC[C@H]2O)cc(C)c1-c1ccc(F)c2c1CC[C@H]2Nc1ccc([C@H]2C[C@@H]2C(=O)O)nc1 [Example 5, (1S,2S)-2-(5-{(R)-7-Fluoro-4-[4-((3R,4R)-4-hydroxy-tetrahydro-furan-3-yloxy)-2,6-dimethyl-phenyl]-indan-1-ylamino}-pyridin-2-yl)-cyclopropanecarboxylic acid] |  | > 50 µM | <0.5% | 0.121 mg/mL (≈ 233 µM) |  | > 50 µM | 0.035 µM
Cc1cc(-c2nnn(C)n2)cc(C)c1-c1ccc(F)c2c1CC[C@H]2Oc1ccc([C@H]2C[C@@H]2C(=O)O)cc1 [Example 45 in WO 2013/178575, reference compound] | 0.008 µM | 5 µM |  | < 0.001 mg/mL | < 1 μg/mL | 10 µM | 
Cc1cc(O[C@@H]2CCOC2)cc(C)c1-c1ccc(F)c2c1CC[C@H]2Nc1ccc([C@H]2C[C@@H]2C(=O)O)nc1 [Example 12] |  | 30 µM |  |  | 105 μg/mL | > 50 µM | 0.01 µM
Cc1cc(OCC2(O)CCS(=O)(=O)CC2)cc(C)c1-c1ccc(F)c2c1CC[C@H]2Nc1ccc([C@H]2C[C@@H]2C(=O)O)nc1 [Example 38] |  | > 50 µM |  |  | >154 μg/mL | > 50 µM | 0.018 µM
Cc1cc(O[C@H]2CCOC2)cc(C)c1-c1ccc(F)c2c1CC[C@H]2Nc1ccc([C@H]2C[C@@H]2C(=O)O)nc1 (mixture of isomers) [Example 33] |  | 40 µM |  |  | 103 μg/mL | > 50 µM | 0.012 µM
Cc1cc(C(N)=O)cc(C)c1-c1ccc(F)c2c1CC[C@H]2Nc1ccc([C@H]2C[C@@H]2C(=O)O)nc1 [Example 11] |  | > 50 µM |  |  | >120 μg/mL | > 50 µM | 0.03 µM
Cc1cc(OC2CCOCC2)cc(C)c1-c1ccc(F)c2c1CC[C@H]2Nc1ccc([C@H]2C[C@@H]2C(=O)O)nc1 [Example 35] |  | 31 µM |  |  | 106 μg/mL | > 50 µM | 0.011 µM
COc1cnc(-c2ccc(-c3cccc4c3CC[C@H]4Nc3ccc([C@H]4C[C@@H]4C(=O)O)nc3)cc2)cn1 [Example 9, (1S,2S)-2-(5-{(R)-4-[4-(5-Methoxy-pyrazin-2-yl)-phenyl]-indan-1-ylamino}-pyridin-2-yl)-cyclopropanecarboxylic acid] |  | 20 µM |  | < 0.001 mg/mL |  | > 50 µM | 0.024 µM
Cc1cc(-c2nnn(C)n2)cc(C)c1-c1ccc(F)c2c1CC[C@H]2Oc1ccc([C@H]2C[C@@H]2C(=O)O)cc1 [Example 33 in WO 2013/178575] |  |  | 8% |  |  |  | 
Cc1cc(-c2ccn(C)c(=O)c2)cc(C)c1-c1ccc(F)c2c1CC[C@H]2Nc1ccc([C@H]2C[C@@H]2C(=O)O)nc1 [Example 29] |  | 14 µM |  |  | 117 μg/mL | > 50 µM | 0.004 µM
Cc1cc(OCCC(C)(C)O)cc(C)c1-c1cccc2c1CC[C@H]2Nc1ccc([C@H]2C[C@@H]2C(=O)O)nc1 [Example 7, (1S,2S)-2-(5-{(R)-4-[4-(3-Hydroxy-3-methyl-butoxy)-2,6-dimethyl-phenyl]-indan-1-ylamino}-pyridin-2-yl)-cyclopropanecarboxylic acid] |  | > 50 µM |  | 0.084 mg/mL (≈ 168 µM) |  | > 50 µM | 0.005 µM
O=C(O)[C@H]1C[C@@H]1c1ccc(N[C@@H]2CCc3c(-c4c(Cl)cccc4Cl)ccc(F)c32)cn1 [Example 24] |  | 11 µM |  |  | >122 μg/mL | 22 µM | 0.004 µM
O=C(O)[C@H]1C[C@@H]1c1ccc(N[C@@H]2CCc3c(-c4ccccc4C(F)(F)F)ccc(F)c32)cn1 [Example 31] |  | 15 µM |  |  | 87 μg/mL | 31 µM | 0.027 µM
COc1ccc(-c2cccc3c2CC[C@H]3Nc2ccc([C@H]3C[C@@H]3C(=O)O)nc2)cc1F [Example 8, (1S,2S)-2-{5-[(R)-4-(3-Fluoro-4-methoxy-phenyl)-indan-1-ylamino]-pyridin-2-yl}-cyclopropanecarboxylic acid] |  | > 50 µM |  | 0.062 mg/mL (≈ 148 µM) |  | > 50 µM | 0.1 µM
Cc1cc(OCC2(C)COC2)cc(C)c1-c1ccc(F)c2c1CC[C@H]2Nc1ccc([C@H]2C[C@@H]2C(=O)O)nc1 [Example 15] |  | 32 µM |  |  | 120 μg/mL | > 50 µM | 0.008 µM
N#CC1(c2ccccc2-c2ccc(F)c3c2CC[C@H]3Nc2ccc([C@H]3C[C@@H]3C(=O)O)nc2)CC1 (mixture of isomers) [Example 25] |  | 49 µM |  |  | 110 μg/mL | 40 µM | 0.344 µM
Cc1cc(OCC2CCOC2)cc(C)c1-c1ccc(F)c2c1CC[C@H]2Nc1ccc([C@H]2C[C@@H]2C(=O)O)nc1 (stereo partly shown) [Example 32] |  | 26 µM |  |  | 123 μg/mL | > 50 µM | 0.007 µM
Cc1cc(-c2nnn(C)n2)cc(C)c1-c1ccc(F)c2c1CC[C@H]2Oc1ccc([C@H]2C[C@@H]2C(=O)O)cc1 [Example 15 in WO 2013/178575] |  |  | 3% |  |  |  | 
Cc1cc(CO)cc(C)c1-c1ccc(F)c2c1CC[C@H]2Nc1ccc([C@H]2C[C@@H]2C(=O)O)nc1 [Example 13] |  | 40 µM |  |  | 105 μg/mL | > 50 µM | 0.025 µM
